Source: patent US6992078B2, “Plant extracts and alkaloids having antitussive activity” (The Chinese University of Hong Kong, priority 2002, dated 2006)
Entries after “also recorded” stand apart in the source; their conditions may differ.

What was measured:
δ1-opioid receptor = target: T1, δ1-opioid receptor (Rattus norvegicus, UniProt P33533); assay: Radiolabeled ligand binding assay, [3H]Deltorphin; settings: 10 μM, Opioid δ1, Rat forebrain, [3H]Deltrophin
T1 construct: Rat forebrain; tissue Novascreen Biosciences (contract assay); host or cells: rat forebrain
T1 sequence (P33533 whole entry): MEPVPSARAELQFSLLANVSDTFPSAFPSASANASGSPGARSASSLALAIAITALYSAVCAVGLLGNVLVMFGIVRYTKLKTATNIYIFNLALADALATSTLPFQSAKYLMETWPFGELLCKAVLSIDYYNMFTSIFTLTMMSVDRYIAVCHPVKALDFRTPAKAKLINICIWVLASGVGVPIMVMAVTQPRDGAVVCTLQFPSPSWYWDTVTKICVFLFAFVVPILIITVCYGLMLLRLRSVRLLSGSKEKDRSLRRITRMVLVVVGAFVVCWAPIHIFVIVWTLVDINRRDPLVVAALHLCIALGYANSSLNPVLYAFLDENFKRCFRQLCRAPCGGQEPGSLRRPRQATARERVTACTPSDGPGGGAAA
Experimental: (§1) The representative Stemona alkaloid, compound A, was subjected to the following primary receptor binding assays. The standard radiolabeled ligand binding experiments were performed at the concentration of 10 μM in duplicate by Novascreen Biosciences Crop. (7170 Standard Drive, Hanover, Md. 21076, USA). The tested receptors included all currently well-known receptors involved in producing the antitussive activity, for example, [^3H]Deltorphin (δ1-opioid receptor), [^3H]Naltrindole (δ2-opioid receptor), [^3H]DAMGO (μ-opioid receptor), [^3H]U69593 (κ1-opioid receptor), […] (GABAB receptor), [^3H]8-OH-DPAT (5HT1A receptor), and […] (Dopamine D2-receptor). […] Therefore, the results obtained from both in vivo and in vitro studies confirmed that the antitussive activity of all five effective novel Stemona alkaloids and neotuberostemonine are not involved in opiate receptor pathways.

Dopamine D2-receptor = assay: Radiolabeled ligand binding assay, [3H]Glibenclamide; set-up: species or system Rat; key to Affinity: ± indicates slight but not significant inhibition on ligand binding; settings: 10 μM, Dopamine D2, Rate striatum
Experimental: as §1

μ-opioid receptor = target: T2, μ-opioid receptor (Rattus norvegicus, UniProt P33535); assay: Radiolabeled ligand binding assay, [3H]DAMGO; settings: 10 μM, Rat forebrain
T2 construct: Novascreen Biosciences (contract assay)
T2 sequence (P33535 whole entry): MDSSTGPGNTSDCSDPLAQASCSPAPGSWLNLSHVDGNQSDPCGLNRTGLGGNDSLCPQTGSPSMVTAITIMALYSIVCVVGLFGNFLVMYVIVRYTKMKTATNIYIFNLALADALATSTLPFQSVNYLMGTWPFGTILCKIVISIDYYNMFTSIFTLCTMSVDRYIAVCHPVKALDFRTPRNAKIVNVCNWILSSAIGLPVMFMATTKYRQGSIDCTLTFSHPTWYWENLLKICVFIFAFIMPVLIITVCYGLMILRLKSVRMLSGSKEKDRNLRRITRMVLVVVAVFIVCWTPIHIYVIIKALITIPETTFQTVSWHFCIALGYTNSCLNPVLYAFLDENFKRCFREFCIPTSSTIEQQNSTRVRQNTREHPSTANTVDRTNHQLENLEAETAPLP
Experimental: as §1

κ1-opioid receptor = target: T3, κ1-opioid receptor (Cavia porcellus, UniProt P41144); assay: Radiolabeled ligand binding assay, [3H]U-69593; settings: 10 μM, Opioid κ, Guinea pig cerebellum
T3 construct: Novascreen Biosciences (contract assay)
T3 sequence (P41144 whole entry): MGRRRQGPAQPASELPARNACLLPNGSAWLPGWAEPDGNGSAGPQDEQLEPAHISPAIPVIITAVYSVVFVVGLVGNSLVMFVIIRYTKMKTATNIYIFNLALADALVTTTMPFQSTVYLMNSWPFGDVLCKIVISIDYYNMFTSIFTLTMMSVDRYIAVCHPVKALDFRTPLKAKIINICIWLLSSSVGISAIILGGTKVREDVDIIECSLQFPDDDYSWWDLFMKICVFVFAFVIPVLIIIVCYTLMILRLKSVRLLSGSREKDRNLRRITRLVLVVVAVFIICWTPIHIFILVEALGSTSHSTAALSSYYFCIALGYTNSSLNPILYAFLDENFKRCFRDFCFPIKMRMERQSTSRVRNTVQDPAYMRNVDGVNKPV
Experimental: as §1

GABAB receptor = target: T4, GABAB receptor (Rattus norvegicus, UniProt Q9Z0U4); assay: Radiolabeled ligand binding assay, [3H]CGP 54626A; settings: 10 μM, Rat cortex
T4 construct: Novascreen Biosciences (contract assay)
T4 sequence (Q9Z0U4 17-960 limits assumed): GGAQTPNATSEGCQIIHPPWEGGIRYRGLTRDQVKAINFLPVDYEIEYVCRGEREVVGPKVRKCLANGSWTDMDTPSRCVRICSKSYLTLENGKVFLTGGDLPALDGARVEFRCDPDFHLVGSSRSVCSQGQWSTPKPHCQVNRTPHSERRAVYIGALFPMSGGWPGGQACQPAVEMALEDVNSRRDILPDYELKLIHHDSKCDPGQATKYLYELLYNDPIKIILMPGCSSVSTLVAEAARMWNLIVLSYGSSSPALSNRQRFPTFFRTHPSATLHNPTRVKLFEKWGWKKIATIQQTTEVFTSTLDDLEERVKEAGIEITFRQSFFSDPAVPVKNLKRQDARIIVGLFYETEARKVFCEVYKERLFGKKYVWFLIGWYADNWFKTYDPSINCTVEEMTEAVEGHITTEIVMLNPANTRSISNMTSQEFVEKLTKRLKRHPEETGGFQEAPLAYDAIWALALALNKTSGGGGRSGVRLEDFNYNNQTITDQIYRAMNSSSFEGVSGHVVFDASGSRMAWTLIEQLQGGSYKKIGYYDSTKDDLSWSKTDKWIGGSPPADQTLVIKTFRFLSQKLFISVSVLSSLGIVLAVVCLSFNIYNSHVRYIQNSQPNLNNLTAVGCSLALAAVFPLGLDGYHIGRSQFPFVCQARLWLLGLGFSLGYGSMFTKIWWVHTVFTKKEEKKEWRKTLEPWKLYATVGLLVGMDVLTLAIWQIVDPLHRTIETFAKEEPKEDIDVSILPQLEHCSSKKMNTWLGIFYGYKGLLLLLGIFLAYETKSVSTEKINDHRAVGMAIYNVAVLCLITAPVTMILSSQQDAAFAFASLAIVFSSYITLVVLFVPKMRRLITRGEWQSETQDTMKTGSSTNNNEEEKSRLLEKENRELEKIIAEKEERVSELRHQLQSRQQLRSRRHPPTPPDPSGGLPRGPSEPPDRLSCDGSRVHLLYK
T4 sequence (O88871 41-940 partner): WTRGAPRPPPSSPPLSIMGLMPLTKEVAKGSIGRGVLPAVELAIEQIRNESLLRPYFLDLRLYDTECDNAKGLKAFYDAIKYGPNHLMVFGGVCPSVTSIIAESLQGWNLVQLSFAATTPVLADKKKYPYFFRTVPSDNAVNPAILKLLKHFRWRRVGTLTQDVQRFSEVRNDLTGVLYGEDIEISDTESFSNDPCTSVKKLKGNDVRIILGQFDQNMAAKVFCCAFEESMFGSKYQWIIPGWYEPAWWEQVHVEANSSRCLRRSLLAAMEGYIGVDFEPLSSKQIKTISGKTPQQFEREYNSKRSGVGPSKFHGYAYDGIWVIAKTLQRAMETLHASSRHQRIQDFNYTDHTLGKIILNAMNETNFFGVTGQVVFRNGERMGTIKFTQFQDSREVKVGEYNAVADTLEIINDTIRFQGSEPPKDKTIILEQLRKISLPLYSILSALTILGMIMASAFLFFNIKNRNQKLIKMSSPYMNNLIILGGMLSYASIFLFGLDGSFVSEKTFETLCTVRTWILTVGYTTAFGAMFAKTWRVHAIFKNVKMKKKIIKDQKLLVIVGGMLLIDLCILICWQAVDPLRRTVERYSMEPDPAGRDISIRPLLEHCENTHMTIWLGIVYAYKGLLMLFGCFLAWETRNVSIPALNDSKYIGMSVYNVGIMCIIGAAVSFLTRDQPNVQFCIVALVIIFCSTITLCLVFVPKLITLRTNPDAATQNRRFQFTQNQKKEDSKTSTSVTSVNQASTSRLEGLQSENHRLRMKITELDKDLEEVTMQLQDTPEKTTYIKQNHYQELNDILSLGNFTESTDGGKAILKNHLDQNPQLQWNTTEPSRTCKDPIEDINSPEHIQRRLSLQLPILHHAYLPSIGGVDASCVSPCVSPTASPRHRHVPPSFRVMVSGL
Experimental: as §1

δ2-opioid receptor = δ2-opioid receptor (Homo sapiens, UniProt P41143); assay: Radiolabeled ligand binding assay, [3H]Naltrindole; settings: 10 μM, Opioid δ2, Human recombinant
Sequence of δ2-opioid receptor (P41143 whole entry): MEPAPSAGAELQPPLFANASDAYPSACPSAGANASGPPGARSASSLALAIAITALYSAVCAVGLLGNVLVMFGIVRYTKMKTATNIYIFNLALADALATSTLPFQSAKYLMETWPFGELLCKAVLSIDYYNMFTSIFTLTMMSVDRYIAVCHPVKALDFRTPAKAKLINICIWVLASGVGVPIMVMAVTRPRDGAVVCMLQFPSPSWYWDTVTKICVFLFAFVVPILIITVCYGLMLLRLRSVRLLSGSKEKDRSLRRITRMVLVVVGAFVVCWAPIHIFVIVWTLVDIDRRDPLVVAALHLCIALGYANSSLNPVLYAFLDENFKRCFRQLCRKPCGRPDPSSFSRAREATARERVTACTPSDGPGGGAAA
Experimental: as §1

[1] = system: citric acid-induced cough; assay: Citric acid-induced cough in guinea pigs (antitussive activity); format: in vivo, guinea pig; settings: for cough episodes (result in words): citric acid-induced cough; for ED50 value (antitussive): comparative study compound A vs codeine (positive control), i.p.; for rank order of antitussive potency: guinea pig citric acid cough model; for % Cough Episode (Composed with Vehicle Control): mean ± SEM
Experimental: In another embodiment, a method is provided for screening for a substance that inhibits coughing activity. For example, a guinea pig is challenged with 0.5 M citric acid. Those producing more than 10 cough episodes during a first citric acid challenge are selected to be sensitive to citric acid induction and are used for further antitussive tests. The number of coughs and the cough latency in the first challenge animal are recorded as the basal level control. After 48 hours of recovery, the sensitive guinea pigs are selected and are randomly divided into different group, and then pretreated with either intraperitoneal or oral administration. For the intraperitoneal administration, the administration can be of a aqueous extract (0.3-3 g/kg), a total alkaloid extract (25-150 mg/kg), an alkaloid, for example compound A (10, 30, 50, and 100 mg/kg), or compounds B, C, D, F, G, H (133 μmol/kg), for 30 min, or of an extract suspected of having antitussive activity. For the oral administration, the administration can be of compound A or E (400 μmol/kg) for 60 min, or of an extract suspected of having antitussive activity. A second citric acid exposure is then conducted. Antitussive activity is evaluated in each treated animal as the reduction of coughs and the increase of cough latency, as compared to the basal level control.
The method previously described by Gallico et al. (1994) was adopted with the following modifications. Unrestrained guinea pigs were placed individually in a hermetically sealed transparent Perspex chamber (25 cm×12 cm×12 cm), and exposed to a nebulized aqueous solution of 0.5 M citric acid for 8 min. An ultrasonic nebulizer was used (OMRON NE-U12, Tokyo, Japan) that produced an aerosol with particles having a mass median diameter of 1˜5 μm. Approximately 0.5 ml of 0.5 M citric acid solution was nebulized per minute. During the exposure, the guinea pigs were continuously monitored by a trained observer. The episodes and latency of coughing in 8 min were detected and counted by the observer. Cough sounds were recorded concurrently and amplified via a microphone placed in the chamber. The sound waves were analyzed by a personal computer by using Cool Edit 2000 software (Syntrillium, Phenix, USA). Therefore, cough counting was performed based on both acoustic data and human observations, and in this manner the reduction or inhibition of coughing (i.e., antitussive activity) was measured.
The guinea pigs were first challenged with 0.5 M citric acid. Those producing more than 10 cough episodes during the first citric acid challenge were selected to be sensitive to citric acid induction and were used for the further antitussive tests. The number of coughs and the cough latency in the first challenge were recorded as the basal level control. After 48 hours of recovery, the sensitive guinea pigs were selected and were randomly divided into different groups with at least four guinea pigs in each group, and then pretreated with intraperitoneal administration of the aqueous extract (0.3-3 g/kg), the total alkaloid extract (25-150 mg/kg), compound A (10, 30, 50, and 100 mg/kg), and compounds B, C, D, F, G, H (133 μmol/kg), for 30 min before the second citric acid exposure. Antitussive activity was evaluated in each treated animal as the reduction of coughs and the increase of cough latency, as compared to the basal level control. Furthermore, the same antitussive test was also performed with oral administration of compounds A and E (400 μmol/kg). In addition, as a positive control, the antitussive activity of codeine (5, 10 and 30 mg/kg, i.p.) was also determined in a parallel study.

[2] = system: all receptors examined (opioid δ1, δ2, κ, μ, GABAB, 5-HT1A, Dopamine D2); assay: In vitro receptor binding assays, summary over all receptors examined; settings: 10 μM, radiolabeled ligand binding
Experimental: as §1

[3] = system: citric acid-induced cough; assay: Effect of receptor antagonists on the antitussive activity of compound A in vivo; set-up: species or system guinea pig; settings: mean ± SEM
Experimental: Further studies were conducted for the delineation of the mechanisms of antitussive activity produced by the representative Stemona alkaloid, compound A. Similarly, the sensitive animals were selected after the first citric acid challenge and allowed to recover for 24 hours. During the second challenge, animals were treated with a subcutaneous injection of different antagonists at different times prior to intraperitoneal administration of compound A (50 or 100 mg/kg). The antagonists examined included SCH 50911 (GABAB receptor antagonist) with a 40 min pretreatment at a dose of 10 mg/kg, WAY-100635 (5-HT1A receptor antagonist) with a 60 min pretreatment at a dose of 1 mg/kg, and haloperidol (Dopamine, D2 receptor antagonist) with a 45 min pretreatment at a dose of 1 mg/kg. In addition, naloxone (nonselective opioid receptor antagonist) was administered subcutaneously at a dose of 5 mg/kg at 20 min after intraperitoneal administration of compound A (30 and 100 mg/kg). The effects of these antagonists on the antitussive activity of compound A were assessed by comparison of the changes in cough episodes and cough latency between animal groups administrated with compound A alone and concurrent administration of compound A and each antagonist tested. Furthermore, in a parallel study, the same treatment with naloxone was also conducted in the animals pretreated with intraperitoneal administration of codeine (30 mg/kg) for the positive control.

5HT1A receptor = assay: Radiolabeled ligand binding assay, [3H]8-OH-DPAT; settings: 10 μM, Bovine hippocampus
Experimental: as §1

[4] = ip, 133 μmol/kg, 30 min before second citric acid exposure, guinea pig
[5] = po, 400 μmol/kg, 60 min before second citric acid exposure, guinea pig

Question: How did the “% Inhibition of Ligand Binding (average)” value (δ1-opioid receptor; duplicate) turn out when `CC[C@@H]1[C@H]2CCCCN3[C@H]2[C@@H](C[C@H]3[C@@H]2C[C@H](C)C(=O)O2)[C@H]2[C@@H]1OC(=O)[C@H]2C` [Compound A, Neotuberostemonine] was run?
Answer: 5.95%

Question: And the Affinity (δ1-opioid receptor)?
Answer: No

Question: What about the Affinity (Dopamine D2-receptor) of the same compound?
Answer: ±

Question: And the “% Inhibition of Ligand Binding (average)” value (Dopamine D2-receptor; duplicate)?
Answer: 33.39%

Question: And the Affinity (μ-opioid receptor)?
Answer: No

Question: What about the “% Inhibition of Ligand Binding (average)” value (μ-opioid receptor; duplicate) of the same compound?
Answer: 7.37%

Question: And the Affinity (κ1-opioid receptor)?
Answer: No

Question: What about the “% Inhibition of Ligand Binding (average)” value (κ1-opioid receptor; duplicate) of the same compound?
Answer: 14.40%

Question: And the Affinity (GABAB receptor)?
Answer: No

Question: And the “% Inhibition of Ligand Binding (average)” value (GABAB receptor; duplicate)?
Answer: 8.06%

Question: And the Affinity (δ2-opioid receptor)?
Answer: No

Question: What about the “% Inhibition of Ligand Binding (average)” value (δ2-opioid receptor; duplicate) of the same compound?
Answer: 8.32%

Question: And the “cough episodes (result in words)” value ([1]; guinea pig)?
Answer: inhibited citric acid-induced cough in a dose-dependent manner; also recorded: significantly inhibited cough episodes in a dose-dependent manner

Question: What about the “ED50 value (antitussive)” value ([1]; guinea pig) of the same compound?
Answer: comparable

Question: And the cough latency ([1]; doses of 50 and 100 mg/kg, intraperitoneal, guinea pig)?
Answer: significantly increased

Question: And the “rank order of antitussive potency” value [1]?
Answer: A=D>C≈F≈H≈B

Question: What about the “% Cough Episode (Composed with Vehicle Control)” value (“% Cough Episode” for short) [1, 4] of the same compound?
Answer: 16.1 ± 7.3%

Question: And the “% Cough Episode” value [1, 5]?
Answer: 21.7 ± 8.9%

Question: And the “affinity to all receptors examined (in words)” value [2]?
Answer: did not show any affinity

Question: What about the “% Antitussive Activity of Compound A” value ([3]; with Haloperidol (Dopamine D2 antagonist) 1 mg/kg sc, 45 min pretreatment, compound A ip 50 or 100 mg/kg) of the same compound?
Answer: 115.21 ± 7.05%

Question: And the “% Antitussive Activity of Compound A” value ([3]; with Naloxone (nonselective opioid antagonist) 5 mg/kg sc 20 min after compound A ip (30 and 100 mg/kg))?
Answer: 86.51 ± 11.57%

Question: What about the “% Antitussive Activity of Compound A” value ([3]; with SCH 50911 (GABAB antagonist) 10 mg/kg sc, 40 min pretreatment, compound A ip 50 or 100 mg/kg) of the same compound?
Answer: 83.25 ± 16.73%

Question: And the “% Antitussive Activity of Compound A” value ([3]; with WAY-100635 (5-HT1A antagonist) 1 mg/kg sc, 60 min pretreatment, compound A ip 50 or 100 mg/kg)?
Answer: 100.50 ± 1.67%

Question: And the Affinity (5HT1A receptor)?
Answer: No

Question: And the “% Inhibition of Ligand Binding (average)” value (5HT1A receptor; duplicate)?
Answer: −18.42%

Question: Which results are given for `CC[C@@H]1[C@@H]2CCCCN3[C@@H]2[C@@H](C[C@H]3[C@@H]2C[C@H](C)C(=O)O2)[C@H]2[C@@H]1OC(=O)[C@H]2C` [Compound B, Tuberostemonine J]?
Answer: cough episodes (result in words) ([1]; guinea pig): marked reduction of cough episodes; rank order of antitussive potency [1]: A=D>C≈F≈H≈B; % Cough Episode (Composed with Vehicle Control) [1, 4]: 76.3 ± 14.7 (ip) %

Question: For `CC[C@@H]1[C@H]2CCCCN3[C@@H]2[C@@H](C[C@H]3[C@@H]2C[C@H](C)C(=O)O2)[C@H]2[C@@H]1OC(=O)[C@H]2C` [Compound C, Tuberostemonine H], which “cough episodes (result in words)” value ([1]; guinea pig) is on record?
Answer: marked reduction of cough episodes

Question: What about the “rank order of antitussive potency” value [1] of the same compound?
Answer: A=D>C≈F≈H≈B

Question: What about the “% Cough Episode” value [1, 4] of the same compound?
Answer: 50.7 ± 16.6 (ip) %

Question: `CC[C@@H]1[C@H]2CCCCN3CC[C@@H]([C@H]4[C@@H]1OC(=O)[C@H]4C)[C@@H]23` [Compound D, Neostenine] was tested. Which “cough episodes (result in words)” value ([1]; guinea pig) did it give?
Answer: significantly inhibited cough episodes in a dose-dependent manner

Question: And the “rank order of antitussive potency” value [1]?
Answer: A=D>C≈F≈H≈B

Question: And the “% Cough Episode” value [1, 4]?
Answer: 29.9 ± 8.3 (ip) %

Question: How did the “% Cough Episode” value [1, 5] turn out when `CC[C@H]1[C@H]2OC(=O)[C@@H](C)[C@H]2c2cc([C@H]3C[C@H](C)C(=O)O3)n3c2[C@H]1CCCC3` [Compound E, Epibisdehydrotuberostemonine J] was run?
Answer: 136.8 ± 25.6 (po) %

Question: Which results are given for `CC[C@@H]1[C@H]2CCCCN3CC[C@@H]([C@H]4[C@@H]1OC[C@H]4C)[C@@H]23` [Compound H, Neostenine-ether]?
Answer: cough episodes (result in words) ([1]; guinea pig): marked reduction of cough episodes; rank order of antitussive potency [1]: A=D>C≈F≈H≈B; % Cough Episode (Composed with Vehicle Control) [1, 4]: 54.4 ± 10.6 (ip) %

Question: How did the “ED50 value (antitussive)” value ([1]; guinea pig) turn out when `COc1ccc2c3c1O[C@H]1[C@@H](O)C=C[C@H]4[C@@H](C2)N(C)CC[C@@]341` [codeine, reference compound] was run?
Answer: comparable

Question: How did the “% Cough Episode” value [1, 4] turn out when Neostenine-acid [Compound G] was run?
Answer: 104.5 ± 20.4 (ip) %

Question: Which “cough episodes (result in words)” value ([1]; guinea pig) does the source give for Neostenine-diol [Compound F] here?
Answer: marked reduction of cough episodes

Question: And the “rank order of antitussive potency” value [1]?
Answer: A=D>C≈F≈H≈B

Question: And the “% Cough Episode” value [1, 4]?
Answer: 62.2 ± 10.8 (ip) %
